± gives the expanded uncertainty stated by the source. Each block holds one compound with its values, some of them ahead of it.
What was measured:
[1] = xn = mol fraction of the nth substance listed; details: 298 K, Crystal, X-ray diffraction
[2] = 298 K; 101 kPa; Crystal; X-ray diffraction
[3] = excess molar enthalpy (molar enthalpy of mixing); xn = mol fraction of the nth substance listed; details: 298 K, 100 kPa, Crystal, Calvet calorimetry

Structure (SMILES): O=P([O-])([O-])[O-].[La+3] [lanthanum orthophosphate] + O=P([O-])([O-])[O-].[Eu+3]
mass density ([1]; 101 kPa, x2 = 0): 5060 ± 30 kg/m3

Structure (SMILES): O=P([O-])([O-])[O-].[La+3] [lanthanum orthophosphate]
mass density [2]: 5060 ± 30 kg/m3

Structure (SMILES): O=P([O-])([O-])[O-].[Gd+3] [gadolinium orthophosphate] + O=P([O-])([O-])[O-].[La+3]
mass density ([1]; 100 kPa, x1 = 0.11): 5160 ± 30 kg/m3 | mass density ([1]; 100 kPa, x1 = 0.24): 5260 ± 30 kg/m3 | mass density ([1]; 100 kPa, x1 = 0.34): 5340 ± 30 kg/m3 | mass density ([1]; 100 kPa, x1 = 0.44): 5440 ± 40 kg/m3 | mass density ([1]; 100 kPa, x1 = 0.55): 5540 ± 30 kg/m3 | mass density ([1]; 100 kPa, x1 = 0.64): 5630 ± 30 kg/m3 | mass density ([1]; 100 kPa, x1 = 0.76): 5740 ± 40 kg/m3 | mass density ([1]; 100 kPa, x1 = 0.84): 5820 ± 40 kg/m3 | mass density ([1]; 100 kPa, x1 = 0.92): 5900 ± 40 kg/m3 | mass density ([1]; 100 kPa, x1 = 1): 5980 ± 40 kg/m3 | excess molar enthalpy ([3]; x1 = 0.24): 0.275 ± 0.287 kcal/mol | excess molar enthalpy ([3]; x1 = 0.44): 0.777 ± 0.287 kcal/mol | excess molar enthalpy ([3]; x1 = 0.55): 0.705 ± 0.311 kcal/mol | excess molar enthalpy ([3]; x1 = 0.76): 0.521 ± 0.239 kcal/mol

Structure (SMILES): O=P([O-])([O-])[O-].[Gd+3] [gadolinium orthophosphate]
mass density [2]: 5980 ± 40 kg/m3

The next lines start with the values.

mass density ([1]; 101 kPa, x1 = 0.11): 5130 ± 30 kg/m3 | mass density ([1]; 101 kPa, x1 = 0.23): 5210 ± 30 kg/m3 | mass density ([1]; 101 kPa, x1 = 0.4): 5340 ± 30 kg/m3 | mass density ([1]; 101 kPa, x1 = 0.58): 5470 ± 30 kg/m3 | mass density ([1]; 101 kPa, x1 = 0.71): 5570 ± 30 kg/m3 | mass density ([1]; 101 kPa, x1 = 0.82): 5660 ± 30 kg/m3 | mass density ([1]; 101 kPa, x1 = 0.91): 5730 ± 30 kg/m3 | mass density ([1]; 101 kPa, x1 = 1): 5810 ± 40 kg/m3 | excess molar enthalpy ([3]; x1 = 0.1): 0.452 ± 0.43 kcal/mol | excess molar enthalpy ([3]; x1 = 0.11): 0.234 ± 0.382 kcal/mol | excess molar enthalpy ([3]; x1 = 0.34): 0.129 ± 0.311 kcal/mol | excess molar enthalpy ([3]; x1 = 0.58): 0.203 ± 0.335 kcal/mol | excess molar enthalpy ([3]; x1 = 0.71): 0.0478 ± 0.263 kcal/mol
Structure (SMILES): O=P([O-])([O-])[O-].[Eu+3] [europium phosphate] + O=P([O-])([O-])[O-].[La+3]

mass density [2]: 5810 ± 40 kg/m3
Structure (SMILES): O=P([O-])([O-])[O-].[Eu+3] [europium phosphate]

mass density ([1]; 100 kPa, x2 = 0): 5060 ± 30 kg/m3
Structure (SMILES): O=P([O-])([O-])[O-].[La+3] [lanthanum orthophosphate] + O=P([O-])([O-])[O-].[Gd+3]
